Experimental data published in patent EP1481986A1, “Antibiotic 97518, pharmaceutically acceptable salts and compositions, and use thereof” (priority 2003, dated 2004).
In brackets after ≈: the same amount, converted by molar mass.

Experiments:
[1] = system: Staphylococcus aureus strain ATCC6538P (L100); assay: Macromolecular synthesis (incorporation of labelled precursors of DNA, RNA, protein and cell wall); format: cell-based; conditions: 20 min at 37°C
Experimental: Staphylococcus aureus strain ATCC6538P (L100) was grown overnight at 37 °C in a rotary bath in Iso-Sensitest Broth (Oxoid Ltd., Basingstoke, Hampshire, England). The culture was diluted up to an OD540 = 0.03 in a 1:1 (v/v) mixture of Iso-Sensitest broth : Davis Mingioli Broth (Difco Labs, Detroit, USA) added with 1g/l of KH2PO4, and was incubated at 37°C. To determine the antibiotic dose/response effects on RNA, DNA, protein and cell wall biosyntheses, the culture was divided in four parts when the optical density reached 0.4. Individual precursors of DNA ([…] ^3H-thymidine + 0.1g/l unlabelled adenosine), RNA (5 mCi/l ^3H-uracil), protein (10 mCi/l ^3H-leucine), and cell wall (1 mCi/l ^3H-N-acetylglucosamine + 3.5 mg/l unlabelled N-acetylglucosamine) biosyntheses were then added, resptectively, to each one of the four aliquots and, immediately after the addition, 100 µl of the resulting culture was dispensed in wells of microtiter plate (96 wells format), containing 10 µl of solutions of antibiotic 97518. After 20 min of incubation at 37°C, 0.1 ml ice-cold 20% (w/v) trichloroacetic acid was added to stop the incorporation. After 30 minutes at 4°, the samples were filtered on Filtermat A (Wallac) using an 96 well Wallac Cell Harvester. The Radioactivity not incorporated was washed away sequentially with water and ethanol. The radioactivity of the biopolymers was counted on the filters, using a Beta Plate System (Wallac).

[2] = system: 1652 Enterococcus faecium cl.isol. Van A; assay: Microbroth dilution MIC (NCCLS M7-A5); format: cell-based; parameters: unit not given here; conditions: CAMHB, 10^4 CFU/ml, 35°C, 18-24 hours
Experimental: (§1) Antimicrobial activity of antibiotic 97518 was determined by using microbroth dilution method with standard U-bottom 96-well plates according to The National Committee for Clinical Laboratory Standards (Methods for Dilution Antimicrobial Susceptibility Tests for Bacteria that Grow Aerobically - Fifth Edition; Approved Standard. NCCLS document M7-A5 Vol.20 No. 2). The strains used were clinical isolates or strains from American Type Culture Collection (ATCC). Powder of antibiotic 97518 was dissolved in DMSO; this solution was further diluted with distilled water. The media used were cation-adjusted Mueller Hinton broth (CAMHB) for Staphylococcus aureus, Moraxella catarrhalis, Enterococci; Todd Hewitt broth (THB) for Streptococcus pyogenes, Streptococcus pneumoniae. Inocula were 10^4 CFU/ml. All strains were incubated at 35°C in air. Incubation time was 18-24 hours. […]

[3] = system: 997 Neisseria gonorrhoeae clin.is.; assay: Microbroth dilution MIC (NCCLS M7-A5); format: cell-based; conditions: 10^4 CFU/ml, 35°C, 18-24 hours
Experimental: as §1

[4] = system: Streptococcus pyogenes C 203; assay: Mouse septicemia protection test (ip infection, survival to day 7); format: in vivo, Female ICR mice; conditions: mice infected ip with Streptococcus pyogenes C 203, Spearman-Kärber method
Experimental: Female ICR mice (Harlan, Italy) weighing 14-16 g were infected intraperitoneally (ip) with 6.5 x 10^2 cells of Streptococcus pyogenes C 203 in 0.5 mL of saline supplemented with 1% peptone. Antibiotic 97518 was administered intravenously (iv) or subcutaneously (sc) within 10-15 min after infection. The 50% effective doses (ED50) were calculated by the Spearman-Kärber method (D.J. Finney. The Spearman-Kärber method. In: Statistical Methods in Biological Assay. (1952) pp. 524-530, Charles Griffin &Co., Ltd., London) from the percentage of animals surviving to day 7 at each dose.

[5] = in vivo

## nisin [reference compound]
[1]; control experiments
  the four macromolecular syntheses (DNA, RNA, protein, cell wall): inhibited all the four macromolecular syntheses at the same concentration

## C=C1NC(=O)[C@H](C(C)C)NC(=O)[C@H](NC(=O)/C(=C/C)NC(=O)[C@@H](N)[C@@H](C)CC)CSC[C@@H](C(=O)N[C@H]2C(=O)N3CCC[C@H]3C(=O)NCC(=O)N[C@H](C(=O)N[C@H](C(=O)N[C@@H]3CSC[C@@H]4NC(=O)CNC(=O)[C@@H](CSC[C@@H]5NC(=O)[C@H](Cc6c[nH]cn6)NC(=O)[C@@H](CSC[C@@H](C(=O)O)NC5=O)NC4=O)NC(=O)CNC(=O)CNC(=O)CNC(=O)[C@H](CCC(=O)O)NC3=O)[C@@H](C)O)CS[C@H]2C)NC(=O)[C@H](Cc2c[nH]c3ccccc23)NC1=O [Antibiotic 97518]
[2]
  MIC: 64
[3]
  MIC: 64 mg/mL (≈ 29.2 mM)
[4]; administered intravenously (iv) within 10-15 min after infection
  ED50: 3.75 mg/kg
[4]; administered subcutaneously (sc) within 10-15 min after infection
  ED50: 3.75 mg/kg
[1]; at 2.5 µg/ml (same concentrations)
  other macromolecular syntheses (DNA, RNA, protein): only partially inhibited
[1]; at 2.5 µg/ml
  cell wall synthesis (3H-N-acetylglucosamine incorporation): blocked cell wall synthesis completely
[5]
  not toxic up to (dose): up to 100 mg/Kg
